Test results from patent publication US20110319346A1, “ELECTROSTATIC PROTEIN/GLUCOSINOLATE COMPLEXES” (NESTEC S.A., priority 2009, published 2011).

Key:
[1] = Emulsifying properties: 10% oil-in-water emulsions, stability to creaming and flocculation; format: physicochemical; details: 10% oil-in-water emulsion, pH 4.0, without or with heat treatment
Experimental: Emulsifying properties of samples at pH 4.0 (prepared as described in example 1) were evaluated by preparing emulsions containing 10% (w/w) of “high oleic” sunflower oil (Oleifico SABO, Manno, Switzerland). Samples with SIN to BLG molar ratio 10 with or without heat treatment were diluted to 0.25 mM BLG and mixed with oil in a Pyrex® tube (D 25 mm, V 35 mL) to a final weight of 20 g. They were pre-homogenized using an Ultra Turrax® T25 equipped with a S25N-10G dispersing head (IKA-Werke, Staufen, Germany) rotating at 16,000 rpm for 1 minute. Homogenization of emulsions was completed using an ultrasonic processor (Hielscher UP400S, power 400 W, frequency 24 kHz) and a sonotrode (diameter 7 mm, approx. length 100 mm, titanium) at room temperature for 75 seconds and 75% amplitude of the ultrasound maximal power. This emulsification time was enough to disperse the oil in small droplets and to avoid excessive heating of the sample. […] Stability of emulsions to creaming and flocculation was followed over 26 days of storage at 4° C.

[2] = molecular target: T1, β-lactoglobulin (BLG) (Bos taurus, UniProt P02754); experiment: Binding curve of sinigrin to β-lactoglobulin (ultrafiltration, SEC of free SIN); parameters: species or system bovine; details: for number of maximum binding sites (nmax): SIN to BLG, acidic conditions (pH 4.0), 25° C.
T1 construct: The composition in the major whey protein fraction was 89.22% BLG; purchased Davisco Biopure, lot JE 001-3-922
T1 sequence (P02754 17-178): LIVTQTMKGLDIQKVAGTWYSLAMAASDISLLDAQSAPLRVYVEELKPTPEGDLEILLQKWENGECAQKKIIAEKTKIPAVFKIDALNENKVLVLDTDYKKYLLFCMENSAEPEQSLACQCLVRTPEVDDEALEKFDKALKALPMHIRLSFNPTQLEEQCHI
Experimental: β-Lactoglobulin (BLG) powder was dispersed in Millipore® water by stirring at room temperature for 1 hour. The protein powder was purchased from Davisco (Biopure, lot JE 001-3-922). The protein content was 93.5 g/100 g of powder, as determined by Kjeldahl analysis (N×6.38). The composition in the major whey protein fraction was 89.22% BLG, 6.91% […], 3.87% bovine serum albumin, as determined by reversed phase HPLC(RP-HPLC); 0.2% fat, 1.5% ash and 4.9% moisture, as specified by the supplier. The mineral composition was as follows: 0.87% Na^+, <0.004% K^+, <0.04% Cl^−, 0.019% Ca^2+, 0.053% P, 0.002% Mg^2+, as determined by atomic absorption spectroscopy.
Concentration of the BLG in the protein solution was 1 mM (1.84% w/w). It was stored overnight at 4° C. to allow hydration. The next day, the protein dispersion was filtered using a Stericup filtration system (Millipore®) with 0.22 μm GP Express Plus membrane. The filtered dispersion (pH 7.2) was either used directly for sample preparation, or it was previously acidified to pH 4.0 using 1M HCl. The amount of 1M HCl added in the latter case was about 1% of the total volume.
The glucosinolate solution was prepared on the day of the experiment by dissolving sinigrin (SIN) in Millipore® water to obtain a concentration 20 or 40 mM (0.83. or 1.66% w/w). Sinigrin hydrate (allyl glucosinolate) 99%, was purchased from Sigma (lot 1291054). For the experiments under acidic conditions, SIN solution was acidified to pH 4.0. The amount of 1M HCl added in the latter case was about 1% of the total volume. […]
After incubation, 2×1.5 mL of mixtures were centrifuged using Centrisart® I centrifugal ultrafiltration units with cellulose triacetate ultrafilters having molecular weight cut-off of 10 kDa (Sartorious, Germany) in a Sorvall RC 3C PLUS centrifuge with a swing bucket rotor (Thermo, Switzerland), for 30 min at 2900×g. Ultrafiltrates were collected, diluted 10 times in Millipore® water, and then analyzed by size exclusion HPLC (SEC) to determine the amount of free (unbound) SIN in each sample. […]

C=CC/C(=N\OS(=O)(=O)[O-])S[C@@H]1O[C@H](CO)[C@@H](O)[C@H](O)[C@H]1O.O.[K+] [SIN, Sinigrin hydrate (allyl glucosinolate)]
ability to produce a stable oil/water emulsion [1]: not able to produce a stable oil/water emulsion | number of maximum binding sites (nmax) ([2]; with heat treatment (85° C., 15 min)): 8.71 | number of maximum binding sites (nmax) ([2]; without heat treatment): 15.4 | amount of bound SIN to BLG ([2]; pH 4.0 compared to 7.2): much higher at pH 4.0 compared to 7.2
